Experimental data reported in patent US20080004302A1, “Novel Compounds” (ASTRAZENECA AB, priority 2006, published 2008).
Structures can show the parent of a compound that is named as a salt. Where two headings read alike, the source gives them in different places.

Columns and labels:
FGFR1 IIIc [1] = target: T1, FGFR1 IIIc (Homo sapiens, UniProt P11362); assay: Cell based inhibition of transiently expressed FGFR1 IIIc phosphorylation via use of ECHO technology (Cos-1 cells)
T1 construct: host or cells: Cos-1

FGFR kinase domain = target: T2, FGFR kinase domain (Homo sapiens, UniProt P11362, C488A/C584S); assay: Kinase assay (ELISA) for inhibition of FGFR activity; type: biochemical; conditions: FGFR inhibition tests, ELISA kinase assay; read-out: Activity class
T2 construct: FGFR kinase domain (amino acids 458-765, C488A, C584S) N-terminally fused to a His6-tag; made in house
Protocol: To determine inhibition of FGFR activity, kinase assays were conducted using ELISA (Enzyme-Linked Immunosorbent Assay) technology.
Kinase activity assays were performed in 384-well polypropylene plates (Matrix, 4311) with a total volume of 40 μl in each well. Each well was coated with 2 μg of polyEAY substrate (Sigma, P3899) at 4° C. overnight. The plates were then washed once with 100 μl PBS and once with 100 μl 50 mM HEPES (pH 7.4) prior to the addition of the kinase assay reagents. […] Various concentrations of test compounds were each added in 5% (v/v) DMSO to yield a final assay DMSO concentration of 1.25% (v/v). The kinase reactions were incubated at room temperature for 45 minutes and stopped by washing the plate three times with 100 μl PBS plus 0.05% Tween. […] Following this, the plates were then washed repeatedly with 100 μl PBS plus 0.05% Tween to remove all traces of the antibody solution. 40 μl of 50 μg/ml 3,3′,5,5′-Tetramethylbenzidine (Sigma, T2885), 0.05M phosphate-citrate buffer, containing 0.03% sodium perborate was added to each well and the plates incubated at room temperature for twelve minutes. The colour reaction was stopped by the addition of 20 μl 2M H2SO4 and the plates read at 450 nm on a Spectrafluor Plus (Tecan).

FGFR1 IIIc [2] = target: T1, FGFR1 IIIc; assay: Cell based inhibition of transiently expressed FGFR1 IIIc phosphorylation (Cos-1 cells)
Protocol: This assay is designed to detect inhibitors of transiently expressed FGFR1 phosphorylation by antibody staining of fixed cells detected using ArrayScan technology.
To undertake the assay, Cos-1 cells were harvested at 90-95% confluence for cell transfection. For each 96-well plate, 24 ul Lipofectamine 2000 was added to 809 ul OptiMEM and incubated at room temperature for 5 minutes. […] Equal volumes of DNA and Lipofectamine 2000 were combined (DNA: Lipid=1:1.2 ratio) and incubated at room temperature for 20 minutes.
The harvested Cos-1 cells are counted using a coulter counter and diluted further with 1% FCS/DMEM to 2.5×10^5 cells/ml. For each 96-well, 8.33 ml cells were required. […] Media was removed from the wells using vacuum aspiration; cells were fixed by adding 50μl of 100% methanol to each well and incubated at room temperature for 20 minutes.
The plates were read on an Arrayscan (Cellomics).

Erk phosphorylation = assay: Growth factor (bFGF) stimulated Erk phosphorylation in NIH 3T3 cells; conditions: Mus musculus, NIH3T3, NIH 3T3 cells, 3 ng/ml bFGF
Description: These and other assays were used to evaluate the ability of a test compound to inhibit growth factor stimulated cellular signalling in mammalian cell lines. This was achieved by measuring the amount of receptor tyrosine kinase regulated Erk phosphorylation within a cell following compound treatment.
NIH 3T3 (ECACC, 93061524) cells were routinely passaged in DMEM (Gibco BRL, 41966) plus 10% foetal calf serum (FCS), 1% L-glutamine (Gibco BRL, 25030) to a confluence not greater than 80%. To undertake the assay, NIH 3T3's were seeded at 1×10^4 cells/well in DMEM plus 10% foetal calf serum, 1% L-glutamine in 96 well plates (Costar, 3904) and incubated at 37° C. (+5% CO2) in a humidified incubator. Once the cells had fully adhered (typically following 4-5 hours incubation) the media was removed from each well and the cells gently washed with 100μl warm serum free media. 90μl of serum free DMEM plus 1% L-glutamine was then added to each well and the plates were returned to a humidified 37° C. (+5% CO2) incubator. The following day, the plates were dosed with 10[l compound (diluted from 10 mM stock in DMSO using serum free DMEM) and the plates were returned to a humidified 37° C. (+5% CO2) incubator for one hour. NIH 3T3 cells were then stimulated with a final concentration of 3 ng/ml bFGF (Sigma, F029 1) for 20 minutes at 37° C. Following stimulation the cells were fixed by adding formaldehyde (4% v/v final concentration) and incubating at room temperature for 20 minutes. The fixative solution was then removed and the wells were washed twice with 100μl phosphate buffered saline (PBS/A) before permeabilising the cells by the addition of 50 μl/well 0.1% triton/PBS/A for 10 minutes at room temperature. The permeabilisation solution was then removed and the cells washed twice more with 100 μl/well PBS/A before the addition of 50 μl/well anti-phospho p44/42 (Cell Signalling Technology, 9106), diluted 1/500 with PBS/A plus 10% FCS. The anti-phospho p44/42 antibody recognises Erk phosphorylated at threonine 202 and tyrosine 204. […] Finally, the plates were washed three times with 100 μl/well PBS/A, leaving the final wash in the wells before sealing the plates. The plates were read at 350 nm and 488 nm using an Arrayscan (Cellomics).

FGFR1 kinase = FGFR1 kinase (Homo sapiens, UniProt P11362); assay: Kinase assay (using Caliper technology); type: biochemical
Outline: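 Human FGFR1 kinase activity measured with a 13-mer fluorescently tagged FGFR1-specific peptide substrate; compounds serially diluted in 5% (v/v) DMSO. Reactions ran 1.5 h at room temperature, stopped with EDTA-containing HEPES pH 7.5 buffer. Phosphorylated and unphosphorylated peptide separated by microfluidic mobility shift.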

human IGF1R = target: T3, human IGF1R (Homo sapiens, UniProt P08069); assay: Inhibition of insulin-like growth factor-1 receptor phosphorylation in R+ cells; type: cell-based; conditions: 30 nM IGF1, read-out: IGF cell class
T3 construct: expressed in transfected cells; host or cells: R+ cells (R- mouse fibroblasts transfected with human IGF1R)

[3] = Cos-1 cells, phospho-FGFR1, ECHO dosing, upper bound of bin, read-out: IC50
[4] = Cos-1 cells, phospho-FGFR1, upper bound of bin, read-out: IC50
[5] = FGFR1 kinase, Caliper, upper bound of bin, read-out: IC50

T1 sequence (P11362 22-822): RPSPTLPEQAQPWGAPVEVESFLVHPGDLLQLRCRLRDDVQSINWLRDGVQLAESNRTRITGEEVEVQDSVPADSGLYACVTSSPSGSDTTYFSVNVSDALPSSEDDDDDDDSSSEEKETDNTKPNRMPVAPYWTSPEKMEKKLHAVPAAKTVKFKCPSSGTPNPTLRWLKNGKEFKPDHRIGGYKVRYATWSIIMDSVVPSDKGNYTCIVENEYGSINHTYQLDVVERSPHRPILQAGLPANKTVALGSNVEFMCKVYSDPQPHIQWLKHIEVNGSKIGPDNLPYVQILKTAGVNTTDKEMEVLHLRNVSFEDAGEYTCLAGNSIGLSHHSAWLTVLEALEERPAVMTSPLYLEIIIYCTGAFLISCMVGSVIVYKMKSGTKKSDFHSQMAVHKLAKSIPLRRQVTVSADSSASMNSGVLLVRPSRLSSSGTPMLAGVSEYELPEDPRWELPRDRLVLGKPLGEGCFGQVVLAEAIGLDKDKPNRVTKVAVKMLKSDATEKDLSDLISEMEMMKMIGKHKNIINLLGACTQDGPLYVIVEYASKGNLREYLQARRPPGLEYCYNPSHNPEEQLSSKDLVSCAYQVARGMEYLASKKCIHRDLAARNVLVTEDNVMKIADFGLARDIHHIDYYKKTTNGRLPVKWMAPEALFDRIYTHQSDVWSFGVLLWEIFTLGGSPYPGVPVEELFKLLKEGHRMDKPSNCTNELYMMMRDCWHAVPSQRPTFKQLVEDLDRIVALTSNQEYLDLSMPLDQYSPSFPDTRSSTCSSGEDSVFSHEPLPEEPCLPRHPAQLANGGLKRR
Chain of FGFR1 kinase (P11362 22-822): as above
T3 sequence (P08069 31-1367): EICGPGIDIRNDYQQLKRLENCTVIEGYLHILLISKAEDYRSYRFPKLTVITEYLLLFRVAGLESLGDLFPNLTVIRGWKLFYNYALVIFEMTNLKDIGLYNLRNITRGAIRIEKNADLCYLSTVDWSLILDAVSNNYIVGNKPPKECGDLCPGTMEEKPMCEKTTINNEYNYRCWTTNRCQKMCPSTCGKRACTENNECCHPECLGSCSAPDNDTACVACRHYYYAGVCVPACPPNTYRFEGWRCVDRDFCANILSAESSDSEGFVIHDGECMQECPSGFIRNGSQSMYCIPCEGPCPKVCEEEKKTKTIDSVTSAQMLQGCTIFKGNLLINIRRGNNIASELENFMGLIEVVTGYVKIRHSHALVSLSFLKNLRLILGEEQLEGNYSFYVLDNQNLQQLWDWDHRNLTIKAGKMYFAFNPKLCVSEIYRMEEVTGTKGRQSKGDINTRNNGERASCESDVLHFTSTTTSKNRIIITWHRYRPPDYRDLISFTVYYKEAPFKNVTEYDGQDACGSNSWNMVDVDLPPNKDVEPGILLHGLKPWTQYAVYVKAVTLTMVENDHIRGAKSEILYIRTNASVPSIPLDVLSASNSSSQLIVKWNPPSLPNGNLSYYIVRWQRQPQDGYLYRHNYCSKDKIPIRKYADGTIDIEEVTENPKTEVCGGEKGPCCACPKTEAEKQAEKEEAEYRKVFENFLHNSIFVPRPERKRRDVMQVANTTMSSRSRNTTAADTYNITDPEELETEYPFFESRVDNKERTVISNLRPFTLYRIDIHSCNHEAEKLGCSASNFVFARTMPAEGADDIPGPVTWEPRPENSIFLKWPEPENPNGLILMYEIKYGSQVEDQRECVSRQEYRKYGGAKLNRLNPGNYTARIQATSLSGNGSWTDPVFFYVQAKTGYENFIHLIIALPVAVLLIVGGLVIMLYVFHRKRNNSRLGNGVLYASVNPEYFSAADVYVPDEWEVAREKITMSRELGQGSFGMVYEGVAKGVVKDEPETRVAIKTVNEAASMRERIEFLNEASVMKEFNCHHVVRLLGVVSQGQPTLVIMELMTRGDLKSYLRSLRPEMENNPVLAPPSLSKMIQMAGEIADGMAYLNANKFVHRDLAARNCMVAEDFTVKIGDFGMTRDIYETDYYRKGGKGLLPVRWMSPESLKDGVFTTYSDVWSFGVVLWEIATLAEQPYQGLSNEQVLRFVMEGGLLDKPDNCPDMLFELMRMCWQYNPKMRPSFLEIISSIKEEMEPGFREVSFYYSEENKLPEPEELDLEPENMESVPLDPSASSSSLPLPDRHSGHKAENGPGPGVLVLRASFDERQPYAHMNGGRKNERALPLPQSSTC
T2 sequence (P11362 458-765 C488A/C584S): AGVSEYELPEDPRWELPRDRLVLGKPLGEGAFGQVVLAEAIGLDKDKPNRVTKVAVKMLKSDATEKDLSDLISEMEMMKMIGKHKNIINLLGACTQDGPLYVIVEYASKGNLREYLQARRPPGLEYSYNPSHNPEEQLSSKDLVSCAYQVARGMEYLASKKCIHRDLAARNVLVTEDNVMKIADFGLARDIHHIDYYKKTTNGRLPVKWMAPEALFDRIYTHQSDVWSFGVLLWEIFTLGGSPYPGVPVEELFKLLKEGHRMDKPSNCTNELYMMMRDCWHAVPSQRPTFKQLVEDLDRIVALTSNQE

| IC50 (FGFR1 IIIc [1]; [3]) | IC50 (FGFR kinase domain) | IC50 (FGFR1 IIIc [2]; [4]) | IC50 (FGFR1 kinase; [5]) | IC50 (human IGF1R) | SMILES | IC50 (Erk phosphorylation) | IC50 (FGFR1 IIIc [2]) | IC50 (FGFR1 IIIc [1]) | IC50 (FGFR1 kinase) | IC50 (Erk phosphorylation; upper bound of bin) |
| --- | --- | --- | --- | --- | --- | --- | --- | --- | --- | --- |
| < 1000 nM | – | < 1000 nM | < 200 nM | 1000 to 10000 nM | Cc1cc(CNc2nccc(Nc3cc(CCc4cccc(O)c4)[nH]n3)n2)on1 [Example 41, 3-[2-[5-[[2-[(3-methyl1,2-oxazol-5-yl)methylamino]pyrimidin-4-yl]amino]-1H-pyrazol-3-yl]ethyl]phenol] | < 200 nM | – | – | – | – |
| – | – | < 10000 nM | < 10000 nM | > 10000 nM | Cc1cc(CNc2nccc(Nc3cc(CCc4cccc(OC(F)(F)F)c4)[nH]n3)n2)on1 [Example 51, N-[(3-methyl1,2-oxazol-5-yl)methyl]-N′-[5-[2-[3-(trifluoromethoxy)phenyl]ethyl]-1H-pyrazol-3-yl]pyrimidine-2,4-diamine] | – | – | – | – | < 10000 nM |
| < 1000 nM | – | < 1000 nM | < 200 nM | > 10000 nM | Cc1cccc(CCc2cc(Nc3ccnc(NCc4cc(C)no4)n3)n[nH]2)c1 [Example 52, N-[(3-methyl1,2-oxazol-5-yl)methyl]-N′-[5-[2-(3-methylphenyl)ethyl]-1H-pyrazol-3-yl]pyrimidine-2,4-diamine hydrochloride] | < 200 nM | – | – | – | – |
| – | – | < 1000 nM | < 1000 nM | 1000 to 10000 nM | Cc1cc(CNc2nccc(Nc3cc(CCc4ccc5c(c4)OCO5)[nH]n3)n2)on1 [Example 54, N′-[5-(2-benzo [1,3]dioxol-5-ylethyl)-2H-pyrazol-3-yl]-N-[(3-methyl1,2-oxazol-5-yl)methyl]pyrimidine-2,4-diamine] | – | – | – | – | < 1000 nM |
| < 200 nM | – | < 1000 nM | < 1000 nM | > 10000 nM | Cc1cc(CNc2nccc(Nc3cc(OCc4cccc(F)c4)[nH]n3)n2)on1 [Example 94, N′-[5-[(3-fluorophenyl)methoxy]-1H-pyrazol-3-yl]-N-[(3-methyl1,2-oxazol-5-yl)methyl]pyrimidine-2,4-diamine hydrochloride] | < 200 nM | – | – | – | – |
| – | – | < 10000 nM | < 10000 nM | > 10000 nM | Cc1cc(CNc2nccc(Nc3cc(OCc4cccc(C(F)(F)F)c4)[nH]n3)n2)on1 [Example 95, N-[(3-methyl1,2-oxazol-5-yl)methyl]-N′-[5-[[3-(trifluoromethyl)phenyl]methoxy]-1H-pyrazol-3-yl]pyrimidine-2,4-diamine hydrochloride] | – | – | – | – | < 10000 nM |
| < 200 nM | – | < 200 nM | – | 1000 to 10000 nM | COC(=O)c1cccc(COc2cc(Nc3ccnc(NCc4cc(C)no4)n3)n[nH]2)c1 [Example 97, Methyl 3-[[5-[[2-[(3-methyl1,2-oxazol-5-yl)methylamino]pyrimidin-4-yl]amino]-1H-pyrazol-3-yl]oxymethyl]benzoate hydrochloride] | < 200 nM | – | – | – | – |
| – | – | < 10000 nM | < 10000 nM | 1000 to 10000 nM | COc1cc(COc2cc(Nc3ccnc(NCc4cc(C)no4)n3)n[nH]2)ccc1F [Example 100, N′-[5-[(4-fluoro-3-methoxy-phenyl)methoxy]-1H-pyrazol-3-yl]-N-[(3-methyl1,2-oxazol-5-yl)methyl]pyrimidine-2,4-diamine hydrochloride] | – | – | – | – | < 10000 nM |
| – | – | < 1000 nM | < 200 nM | 1000 to 10000 nM | Cc1cc(CNc2nccc(Nc3cc(CCc4ccoc4)[nH]n3)n2)on1 [Example 110, N′-[5-[2-(3-furyl)ethyl]-1H-pyrazol-3-yl]-N-[(3-methyl1,2-oxazol-5-yl)methyl]pyrimidine-2,4-diamine] | – | – | – | – | < 1000 nM |
| – | – | < 10000 nM | < 200 nM | 1000 to 10000 nM | c1cnc(-c2cc(CNc3nccc(Nc4cc(CCc5ccco5)[nH]n4)n3)on2)nc1 [Example 113, N′-[5-[2-(2-furyl)ethyl]-2H-pyrazol-3-yl]-N-[(3-pyrimidin-2-yl1,2-oxazol-5-yl)methyl]pyrimidine-2,4-diamine] | – | – | – | – | < 10000 nM |

Further lines, the molecule ahead of its results:

| SMILES | IC50 (FGFR1 IIIc [1]; [3]) | IC50 (FGFR kinase domain) | IC50 (FGFR1 IIIc [2]; [4]) | IC50 (FGFR1 kinase; [5]) | IC50 (human IGF1R) | IC50 (Erk phosphorylation) | IC50 (FGFR1 IIIc [2]) | IC50 (FGFR1 IIIc [1]) | IC50 (FGFR1 kinase) | IC50 (Erk phosphorylation; upper bound of bin) |
| --- | --- | --- | --- | --- | --- | --- | --- | --- | --- | --- |
| Cc1cc(CN(C)c2nccc(Nc3cc(C)[nH]n3)n2)on1 [Example 2, N-methyl-N-[(3-methylisoxazol-5-yl)methyl]-N′-(5-methyl-2H-pyrazol-3-yl)pyrimidine-2,4-diamine] | < 1000 nM | 100 to 1000 nM | – | – | – | – | – | – | – | – |
| COc1cc(CCc2cc(Nc3ccnc(NCc4cc(C)no4)n3)n[nH]2)cc(OC)c1 [Example 42, N′-[5-[2-(3,5-dimethoxyphenyl)ethyl]-2H-pyrazol-3-yl]-N-[(3-methyl1,2-oxazol-5-yl)methyl]pyrimidine-2,4-diamine] | – | – | – | – | 1000 to 10000 nM | < 200 nM | < 200 nM | < 200 nM | < 200 nM | – |
| Cc1cc(CNc2nccc(Nc3cc(CCc4cccc(Br)c4)[nH]n3)n2)on1 [Example 53, N′-[5-[2-(3-bromophenyl)ethyl]-1H-pyrazol-3-yl]-N-[(3-methyl1,2-oxazol-5-yl)methyl]pyrimidine-2,4-diamine hydrochloride] | – | – | < 1000 nM | < 1000 nM | > 10000 nM | < 200 nM | – | – | – | < 1000 nM |
| Cc1cc(CNc2nccc(Nc3cc(OCc4cccc(OS(C)(=O)=O)c4)[nH]n3)n2)on1 [Example 88, N-[(3-methyl1,2-oxazol-5-yl)methyl]-N′-[5-[(3-methylsulfonyloxyphenyl)methoxy]-2H-pyrazol-3-yl]pyrimidine-2,4-diamine] | – | – | < 10000 nM | < 1000 nM | > 10000 nM | – | – | – | – | < 10000 nM |
| CNC(=O)c1cccc(COc2cc(Nc3ccnc(NCc4cc(C)no4)n3)n[nH]2)c1 [Example 91, N-methyl-3-[[5-[[2-[(3-methyl1,2-oxazol-5-yl)methylamino]pyrimidin-4-yl]amino]-1H-pyrazol-3-yl]oxymethyl]benzamide] | < 1000 nM | – | < 1000 nM | < 200 nM | > 10000 nM | < 200 nM | – | – | – | – |
| Cc1cc(CNc2nccc(Nc3cc(OCc4cccc(Cl)c4)[nH]n3)n2)on1 [Example 93, N′-[5-[(3-chlorophenyl)methoxy]-1H-pyrazol-3-yl]-N-[(3-methyl1,2-oxazol-5-yl)methyl]pyrimidine-2,4-diamine hydrochloride] | < 1000 nM | – | < 1000 nM | < 1000 nM | > 10000 nM | < 200 nM | – | – | – | – |
| Cc1cc(CNc2nccc(Nc3cc(-c4ccco4)[nH]n3)n2)on1 [Example 105, N′-[5-(2-furyl)-1H-pyrazol-3-yl]-N-[(3-methyl1,2-oxazol-5-yl)methyl]pyrimidine-2,4-diamine] | – | – | < 10000 nM | < 1000 nM | > 10000 nM | – | – | – | – | < 1000 nM |
| Cc1cc(CNc2nccc(Nc3cc(CCC4CCOC4)[nH]n3)n2)on1 (centres unmarked) [Example 109, N-[(3-methyl1,2-oxazol-5-yl)methyl]-N′-[5-[2-(oxolan-3-yl)ethyl]-1H-pyrazol-3-yl]pyrimidine-2,4-diamine] | – | – | < 10000 nM | < 1000 nM | > 10000 nM | – | – | – | – | < 10000 nM |
| c1coc(CCc2cc(Nc3ccnc(NCc4cc(C5CC5)no4)n3)n[nH]2)c1 [Example 111, N-[(3-cyclopropyl1,2-oxazol-5-yl)methyl]-N′-[5-[2-(2-furyl)ethyl]-2H-pyrazol-3-yl]pyrimidine-2,4-diamine] | < 200 nM | – | < 1000 nM | < 200 nM | 1000 to 10000 nM | < 200 nM | – | – | – | – |
| Cc1cc(CNc2nccc(Nc3cc(CCc4cc(C)nn4C)[nH]n3)n2)on1 [Example 118, N′-[5-[2-(2,5-dimethylpyrazol-3-yl)ethyl]-1H-pyrazol-3-yl]-N-[(3-methyl-1,2-oxazol-5-yl)methyl]pyrimidine-2,4-diamine] | – | – | < 30000 nM | < 1000 nM | > 10000 nM | – | – | – | – | < 30000 nM |
